From US20210244712A1, “METHODS FOR TREATING PATIENTS WITH CANCER HAVING DEFECTS IN CYCLIN D REGULATION” (NysnoBio Ireland DAC, priority 2018, published 2021)
Read-outs that look alike come from different tables or passages of the source.

Key:
[1] = HCT-116 xenograft model, body weight and adverse events; type: in vivo; conditions: for weight loss or adverse events: Groups 2-6 of Table 8, IP daily for 20 days; for body weight: throughout the duration of the study, Compound 42 1 and 5 mg/kg, Compound F 10 or 25 mg/kg
Procedure: Treatments were initiated when turner volume reached 100-150 mm^3. Treatments started on Day 5. Test compounds were administered intraperitoneally (II′) in 10 mg/mL solution comprising 10% N,N-dimethyl acetamide, 15% macrogol 15 hydroxy stearate, polyethylene glycol-15-hydroxystearate, and 75% aqueous hydroxypropyl-beta-cyclodextrin.
Observation and data collection: After tumor cells inoculation, the animals were checked daily for morbidity and mortality. At the time of routine monitoring, the animals were checked for any adverse effects of tumor growth and treatments on normal behavior such as mobility, visual estimation of food and water consumption, body weight gain/loss, eye/hair matting and any other abnormal effects, Death and observed clinical signs were recorded, per […] IACUC. Tumor volumes were measured every 3-4 days in two dimensions using an electronic caliper, sad the volume data are expressed in, mm3 using the formula: V=0.5 a×b^2 where a and b are fee long and short diameters of the tumor, respectively. Dosing and tumor volume measurement procedures were conducted in a Laminar Flow Cabinet according to Altogen Labs IACUC regulations.
Body weight loss daring fee study: Sacrifice fee mouse when one measurement of body weight loss (BWL)>20% (only for control animals). Animal research associated wife this study was conducted under Altogen Labs IACUC regulatory space. Altogen Labs IACUC guidelines were followed in case of BWL and any other conditions.

[2] = test system: cyclin D1; assay: Western blot of Cyclin D1, Example 6B; type: cell-based; conditions: 24 h, compared to control (DMSO)
Procedure: Cells were plated at a density of 3×10^5 cells/well for 24 hrs. Representative compounds or DMSO alone was then added to the wells for 24 h at 250 nM (note: Compound F was administered at a concentration of 2 μM). Cells were trypsinised, pelleted, washed ×3 in PBS, and lysed using a 2% SDS lysis solution (Sigma—05030).
Western blot analysis was then carried out to look at Cyclin D1 (Abeam—ab134175), PRK8 (Sigma—P6248), Rb (Abeam—[…]) and GAPDH (Sigma—G9545) levels.

[3] = test system: A549; assay: Cell proliferation assay; type: cell-based; conditions: Homo sapiens
Procedure: (§1) Measurement of the inhibitive effect of compounds on cancer cell proliferation was performed. The assays were performed under the following conditions: Cells are harvested at a concentration of 4×10^4 cells/ml in media. Volumes of 100 μL/well of these cell suspensions were added to a 96 well plate using a multichannel pipette. Plates were gently agitated to ensure an even dispersion of cells over a given plate. Cells were then incubated at 37° C., 5% CO2 overnight. Following this, 100 μL of compound at varying concentrations was added to wells in triplicate. Control wells are those with 100 μL media containing 0.33% DMSO added to cell suspension (this is the equivalent volume of DMSO found in the highest concentration of drug). Plates were then gently agitated, as above, and incubated at 37° C., 5% CO2 for 72 hrs (control wells have reached 80-90% confluency). Assessment of cell proliferation in the presence of Compounds C and F was determined by the acid phosphatase assay.
(§2) Following the incubation period of 72 hrs, media was removed from the plates. Each well on the plate was washed twice with 100 μL PBS. This was then removed and 100 μL of freshly prepared phosphatase substrate (10 mM p-nitrophenol phosphate in 0.1M sodium acetate, 0.1% triton X-100, pH 5.5) was added to each well. The plates were then incubated in the dark at 37° C. for 2 hours. Color development was monitored during this time. The enzymatic reaction was stopped by the addition of 50 μL of 1N NaOH. The plate was read in a dual beam plate reader at 405 nm with a reference wavelength of 620 nm. The absorbance reading of the latter is subtracted from the former, and the effect of the drug on cell proliferation was then measured as a percentage against the control cells (DMSO), which is taken as 0% inhibition.

[4] = test system: TOV-21G; assay: Cell proliferation assay; type: cell-based; conditions: Homo sapiens
Procedure: as §1, §2

[5] = test system: Jeko-1; assay: Cell proliferation assay; type: cell-based; conditions: Homo sapiens; for IC50: Mantle Cell Jeko-1, overexpression of Cyclin D
Procedure: as §1, §2

[6] = test system: HCT 116; assay: Cell proliferation assay; type: cell-based; conditions: Homo sapiens
Procedure: as §1, §2

[7] = test system: A2780; assay: Cell proliferation assay; type: cell-based; conditions: Homo sapiens; for IC50: Ovarian A2780
Procedure: as §1, §2

[8] = test system: TOV-112D; assay: Cell proliferation assay; type: cell-based; conditions: Homo sapiens
Procedure: as §1, §2

[9] = test system: OAW42; assay: Cell proliferation assay; type: cell-based; conditions: Homo sapiens, OAW-42; for IC50: Ovarian OAW42
Procedure: as §1, §2

[10] = Ovarian TOV21G, read-out: Proliferation IC50
[11] = CRC HCT-116, loss of p16 (mutant p53), read-out: Proliferation IC50
[12] = Ovarian TOV112D, loss of p16 (mutant p53), read-out: Proliferation IC50

SMILES	weight loss or adverse events [1]	body weight [1]	IC50 [4, 10]	IC50 [5]	IC50 [6, 11]	IC50 [7]	IC50 [8, 12]	IC50 [9]	further results
Cc1ccccc1C(=O)Nc1nc(NC(=O)c2ccccc2C)n(-c2ccc(OC(F)(F)F)cc2)n1 [Compound 42, N,N′-(1-(4-(trifluoromethoxy)phenyl)-1H-1,2,4-triazole-3,5-diyl)bis(2-methylbenzamide)]	No weight loss or any adverse events	maintained body weight	109 nM	154 nM	87 nM	84 nM	103 nM	166 nM	Cyclin D1 expression ([2]; HCT-116, 250 nM): reduction of Cyclin D1 expression; Cyclin D1 expression ([2]; TOV-112, 250 nM): reduction of Cyclin D1 expression; EC50 ([3]; Table 7a, Lung (A549)): 72 nM; EC50 ([4]; Table 7a, Ovarian (TOV21G)): 74 nM; EC50 ([5]; Table 7a, Mantle Cell (Jeko-1)): 154 nM; EC50 ([6]; Table 7a, Colon (HCT-116), read-out: EC50): 87 nM; EC50 ([7]; Table 7a, Ovarian (A2780)): 58 nM; EC50 ([8]; Table 7a, Ovarian (TOV112D), read-out: EC50): 98 nM; EC50 ([9]; Table 7a, Ovarian (OAW42)): 166 nM
Cc1ccccc1C(=O)Nc1nc(NC(=O)c2ccccc2C)n(-c2ccccc2)n1 [Compound F, 2-methyl-N-[5-[(2-methylbenzoyl)amino]-1-phenyl-1,2,4-triazol-3-yl]benzamide]	No weight loss or any adverse events	maintained body weight	1500 nM	> 2500 nM	1300 nM	1300 nM	850 nM	> 2500 nM	Cyclin D1 expression ([2]; HCT-116, 2 μM): reduction of Cyclin D1 expression; Cyclin D1 expression ([2]; TOV-112, 2 μM): reduction of Cyclin D1 expression; IC50 ([3]; A549, 72 hrs, read-out: Cell Viability: IC50): 7540 nM; IC50 ([4]; TOV21G, TOV-21G, 72 hrs, read-out: Cell Viability: IC50): 1160 nM; IC50 ([6]; HCT 116, 72 hrs, read-out: Cell Viability: IC50): 2000 nM; IC50 ([8]; TOV112D, TOV-112D, 72 hrs, read-out: Cell Viability: IC50): 990 nM
